Measurements taken from ChEMBL document CHEMBL3507680, “University of Dundee, Gates Library screen for HepG2 cell viability”.

Assay: Human HepG2 cell viability assay in 384 well format
Format: toxicity, cell-based
Design: dose 125 nL, time 70.5 hour; cytotoxicity at 70.5 h: concentration not given beside the values
Conditions: HepG2 cells, read-out: Inhibition

Row | Compound | cytotoxicity at 70.5 h
1 | CCC(NCc1ccccn1)c1ccccc1OCC(=O)NC (stereo not drawn) | -3.93%
2 | O=C(N1CCCC1)N1CCC2(CC1)C(=O)N(CC1CC1)c1ccccc12 | -20.3%
3 | Cc1n[nH]c(C2CN(C(=O)c3cc(C)sc3C)CCO2)n1 (stereo not drawn) | -6.3%
4 | O=C(NCC1(CO)CC1)c1nnn(-c2ccc(F)cc2)c1C1CC1 | -4.26%
5 | CN1CCC(N2CCC(C(=O)N(C)C)CC2)CC1 | -0.525%
6 | Cc1nccnc1N1C[C@H](NC(=O)CNS(C)(=O)=O)[C@@H](C2CC2)C1 | -3.36%
7 | Cc1nc(N2CCCC2)ncc1-c1cc(O)nc(N2CCCCC2)n1 | -10.4%
8 | O=C(c1cc(C2CC2)on1)N1C[C@H]2CC[C@](O)(c3ccc(F)cc3)[C@H]2C1 | -0.34%
9 | COc1ccc(F)cc1CN1CCN(Cc2nccn2C)C(C)C1 (stereo not drawn) | 9.37%
10 | CCC(Nc1nc(CCN)nc2ccccc12)c1cc(C)ccn1 (stereo not drawn) | -5.71%
11 | Cc1cc(C)n(-c2ccc(C(=O)NCc3cncn3CC(C)C)cc2)n1 | -1.13%
12 | NC(=O)CC1CCCN(C(=O)NCC2(c3cccs3)CCCC2)C1 (stereo not drawn) | -0.84%
13 | CCc1nc2n(n1)CC(NCc1noc(-c3ccccc3)n1)CC2 (stereo not drawn) | 12.2%
14 | CC(=O)N1CCC2(CC1)[C@@H]1CN(Cc3cccnc3)C[C@@H]1C(=O)N2C | 18.5%
15 | O=C(Cn1cc(NC(=O)c2ccc(F)cc2F)cn1)NC1CCCC1 | -4.45%
16 | Cc1sc(C(=O)NS(C)(=O)=O)cc1-c1ccc(F)cc1 | -4.18%
17 | COc1ccccc1C(=O)N1CCN(CCc2scnc2C)CC1 | -7.23%
18 | CCOC(=O)NCCC(=O)NC(C)(C)c1ccc2c(c1)OCCO2 | -6.26%
19 | COCCN1CCN(Cc2cnc(C(C)C)nc2)CC1 | 16.4%
20 | O=C(CCCNc1ncccn1)N1CCCC(n2ccnc2)C1 (stereo not drawn) | -3.12%
21 | CC(C)(CO)CCCNC(=O)N1CCc2c(F)ccc(F)c2C1 | -2.98%
22 | Cc1cccc(NC(=O)C2CCCN2C(=O)c2ccco2)c1C (stereo not drawn) | 11.4%
23 | Cc1ccc(N2CCCN(C(=O)CCc3nccs3)CC2)nn1 | -8.06%

Row | Compound | cytotoxicity at 70.5 h
24 | CNc1cc(-c2cccc(CN)c2)c2cc[nH]c2n1 | -13.9%
25 | Cn1ccc2cc(C(=O)NC3CCOC(C)(C)C3)ccc21 (stereo not drawn) | 7.49%
26 | CC(C)CCN(C)Cc1ccccc1-c1nc(C(C)C)cc(=O)[nH]1 | 0.496%
27 | CN(C)CCN(Cc1ccsc1)C(=O)C1=NNC(=O)CC1 | -9.01%
28 | CC(=O)N1CCC(c2cncc(N3CCCCCC3)n2)CC1 | -17.2%
29 | Cc1ccccc1C1CCN(CCn2cc(-c3cccc(O)c3)nn2)C1 (stereo not drawn) | 29.4%
30 | CCc1n[nH]c(C2CN(Cc3ncc(CC)o3)CCO2)n1 (stereo not drawn) | 51.9%
31 | CC(C)OCCOCc1cccc(NC(=O)NCc2cnn(C)c2)c1 | -0.106%
32 | O=C(c1ccncc1)N1CCCC(c2ncncc2-c2ccncc2)C1 (stereo not drawn) | -4.43%
33 | CCC(=O)NC1CCCN(C(=O)Nc2cccc(COC(C)C)c2)C1 (stereo not drawn) | 7.06%
34 | COc1cccc(CN(C)c2ncc(C(N)=O)cc2Cl)c1 | -4.58%
35 | O=C(O)C1CC2(CCN(c3nccc4ccccc34)CC2)CN1 (stereo not drawn) | 9.49%
36 | Cc1cc(C)n(CCN2CCC(N(C)Cc3noc(C4CC4)n3)C2)n1 (stereo not drawn) | -4.52%
37 | CCS(=O)(=O)N1CC(c2nc(-c3ccsc3)no2)C1 | -3.37%
38 | O=C([C@H]1C[C@H]2OCC[C@H]2N(Cc2ccncc2)C1)N1CCCCO1 | -0.173%
39 | Cc1c(C(=O)NCCCS(C)(=O)=O)cccc1-c1ccccn1 | 7.88%
40 | CC(C)C(=O)N1CCOC[C@H](Oc2ccc(C(F)(F)F)cc2)C1 | -1.93%
41 | c1coc(CN2CCC3(CC2)COC(COCC2CCOCC2)C3)c1 (stereo not drawn) | -12.1%
42 | Cc1ccc(C(=O)N2C[C@@H]3CN(S(C)(=O)=O)CCO[C@@H]3C2)s1 | 0.775%
43 | O=C(CO)N1CCN(S(=O)(=O)CCCF)CC1 | 3.01%
44 | O=C(NCC1CCOC1)c1cc(-c2ccccc2Cl)[nH]n1 (stereo not drawn) | -12.9%
45 | Cc1cc(C)nc(N2CCC(c3cc(CCO)[nH]n3)C2)n1 (stereo not drawn) | -12.4%
46 | CN(C)C(=O)c1ccccc1NC(=O)N[C@@H]1c2ccccc2C[C@@H]1O | 0.722%

Row | Compound | cytotoxicity at 70.5 h
47 | COc1ncccc1C(=O)Nc1cccc(C[S+](C)[O-])c1C (stereo not drawn) | -6.07%
48 | COc1cc(N2CCC3(CC2)CC(N2CCN(C)CC2)CO3)ncn1 (stereo not drawn) | -20.9%
49 | CC1CN(C)CCN1C(=O)c1ccn(-c2ccccc2Cl)n1 (stereo not drawn) | 16.7%
50 | Cc1n[nH]c(C2CN(CC(=O)NCc3ccco3)CCO2)n1 (stereo not drawn) | 15.9%
51 | COc1cccc(F)c1CN1CCC(c2nccc(C)n2)C1 (stereo not drawn) | -9.63%
52 | CC(CC(=O)NS(=O)(=O)c1ccc2c(c1)OCCO2)c1ccc(F)cc1 (stereo not drawn) | -1.76%
53 | CCN(CC)S(=O)(=O)N1CCCC1C(=O)N1CCSCC1 (stereo not drawn) | -2.8%
54 | CC(C)S(=O)(=O)N1CCCC(c2nccn2Cc2cccnc2)C1 (stereo not drawn) | -8.01%
55 | O=C(NCCC1=CCCCC1)NC1CCCc2c1cnn2CCO (stereo not drawn) | -10.1%
56 | COCC(=O)N1CCCC1(C)c1nc(C)cc(O)n1 (stereo not drawn) | -10.5%
57 | CNC(=O)Cc1noc(Cc2ccc3c(c2)CCCC3)n1 | 12.5%
58 | CSc1nc(N)cc(N2C[C@@H]3CC[C@H](C2)N(Cc2cscn2)C3=O)n1 | 7.64%
59 | CN(C)Cc1nc2c(o1)CN(C(=O)NCc1cccc(F)c1)C2 | -5.42%
60 | CCN(Cc1ccncc1)S(C)(=O)=O | 27.1%
61 | CCCc1ccc(S(=O)(=O)NC2(CC(N)=O)CCC2)cc1 | 1.66%
62 | O=c1[nH][nH]cc1-c1ccnc(NCCN2CCCCC2)n1 | 30.8%
63 | c1ccc(OCc2nnc3n2CCN(CC2CCOCC2)C3)nc1 | -0.459%
64 | CN1[C@H](CN2CCCC2)C[C@@H]2CN(C(=O)c3cccn3C)CC[C@@H]21 | 1.34%
65 | c1cnnc(N2CCCC2CNCc2nc(-c3cccs3)no2)c1 (stereo not drawn) | -15.1%
66 | Cn1cnnc1C1CCCN(C(=O)c2n[nH]c3ccccc23)C1 (stereo not drawn) | 4.38%
67 | O=C(NC1CCC1)[C@H]1C[C@@H]2[C@@H](C1)OCCN2CC1CC1 | 0.808%
68 | O=C(N1CCCC1)N1CCC2(CC1)CN(c1cccnc1)C(=O)CO2 | -6.88%
69 | Cn1cnc2c1C(COCC1CCOCC1)CN(C(=O)c1ccoc1)C2 (stereo not drawn) | 11.3%

Row | Compound | cytotoxicity at 70.5 h
70 | O=C1CC(NCc2cnc(-c3cccs3)nc2)CN1c1ccccc1 (stereo not drawn) | -2.68%
71 | Cc1c(C)n(CC(O)CN2CCOCC2)c2c(Cl)cccc12 (stereo not drawn) | 11.2%
72 | COCCN1CCN(Cc2ccc3nsnc3c2)[C@H]2CS(=O)(=O)C[C@H]21 | -5.97%
73 | COc1cccc(-c2cnc(C3CCNCC3)cn2)c1 | -4.54%
74 | COc1cc(C2CC(=O)Nc3c2nc2n3CCCC2)cc2c1OCO2 (stereo not drawn) | -12%
75 | CCOc1cc(=O)n2c(c1C(=O)OCc1cccc(C)c1)CCCC2 | -11.3%
76 | Cn1ccnc1CN1CCN(CCOc2ccccc2F)CC1 | -11.2%
77 | CC(C)c1nnc2n1CCN(C(=O)c1ccc(OCC3CC3)cc1)C2 | -6.55%
78 | Cc1cccc(-c2[nH]ncc2CNCC2CCN(CC(C)O)CC2)c1 (stereo not drawn) | -4.28%
79 | CN(C1CCCN(c2ccccn2)C1)S(C)(=O)=O (stereo not drawn) | -3.73%
80 | CN(CC(=O)N1CCCC1)C(=O)c1ccccc1Nc1ccccc1 | 18.3%
81 | CCOc1ncccc1C(=O)N1CCCC1Cn1cc(C)cn1 (stereo not drawn) | -5.13%
82 | O=C1CC[C@]2(CC[C@@H](NC3CCOC3)CC2)N1Cc1ccccc1 (stereo partly drawn) | -1.97%
83 | Cc1cc(CNC(=O)Nc2cccc(COCCOC(C)C)c2)no1 | -0.772%
84 | CC(=O)N1CC2(CCN(C(=O)C3CC3)CC2)c2cc(C)ccc21 | 6.48%
85 | CCN(Cc1cnn(CC)c1)Cc1c(Cl)cncc1Cl | -2.13%
86 | CC(Cn1ccnc1)NC(=O)NCCNC(=O)C(C)C (stereo not drawn) | 16.2%
87 | OC(COCc1ccccc1F)CN1CCc2c(ncn2C2CC2)C1 (stereo not drawn) | -2.37%
88 | Cc1ncc2c(n1)CN(Cc1nc3c(F)cccc3[nH]1)CC2 | -2.01%
89 | Cc1cnc(CN(C)Cc2cccc(OC(F)(F)F)c2)cn1 | -3.82%
90 | CCc1nc(N)nc(NCc2cnn3cccnc23)c1C | -0.745%
91 | O=S1(=O)CCCN1Cc1coc(-c2cccs2)n1 | -10.6%
92 | O=C(c1cccc(F)c1)N1CCN2C[C@H](OCc3cccnc3)C[C@H]2C1 | -19%

Row | Compound | cytotoxicity at 70.5 h
93 | c1ncn(CCNC2CCCN(Cc3noc(C4CC4)n3)C2)n1 (stereo not drawn) | -11.2%
94 | COCCN1CCC2(CC1)CC(COC)N(c1ncccn1)C2 (stereo not drawn) | -9.91%
95 | Nc1ncc(C(=O)N2CCN(c3nccs3)CC2)cc1Cl | -4.3%
96 | CCc1n[nH]c(C(=O)NCCn2ccnc2C)c1C | -5.75%
97 | COc1cccc(N2CCN(Cc3ccc4[nH]ccc4c3)CC2=O)c1 | -12.1%
98 | Cc1nc(CN[C@H]2CCCN(C(=O)OC(C)(C)C)C2)cs1 | -3.34%
99 | Cc1cccc(CN2C[C@H](OCc3csc(C)n3)[C@H]3COC[C@H]32)n1 | -3.75%
100 | CC(C)CNC(=O)c1ccc(NC(=O)NC(C)(C)CO)cc1Cl | -2.58%
101 | Cc1nn(CCO)c(C)c1-c1cc(C(C)(C)C)nc(N)c1C#N | 16.9%
102 | Cc1ncsc1CCN1CCC(N(C)Cc2noc(C(C)C)n2)C1 (stereo not drawn) | 6.17%
103 | CC(NC(=O)NCCC(=O)OC(C)(C)C)c1nncn1C (stereo not drawn) | -0.412%
104 | CC(C)Cn1cncc1Cn1cccc(C(F)(F)F)c1=O | -2.53%
105 | COc1cc(C(=O)Nc2c(C)noc2C)ccc1C | 1.7%
106 | Cc1nc(NCCC23CCCN2CCC3)cc(C2CCCNC2)n1 (stereo not drawn) | -3.41%
107 | CCOCCCNC(=O)c1nn(CC)cc1Br | 25.1%
108 | O=C1N(Cc2cccnc2)C[C@H]2CN(S(=O)(=O)c3ccccc3)CCN12 | 1.73%
109 | CC(C)CS(=O)(=O)NC(=O)c1ccc2c(c1)ncn2C | -4.45%
110 | COc1ccc(C2CCCN2c2cnccn2)c(OC)c1 (stereo not drawn) | -2.67%
111 | Cc1nc(N2CCC(C(O)c3nccn3C)CC2)c2sccc2n1 (stereo not drawn) | 35.8%
112 | COCC(=O)NCc1cc(=O)n2c(n1)CN(CC1CC1)CCC2 | 0.0162%
113 | CCCc1noc(C(C)N2CCN(Cc3nc(C)c(C)o3)CC2)n1 (stereo not drawn) | 0.969%
